Laboratory results published in PubChem BioAssay AID1963835 (Molecular Pharmacology Branch, DTP, NCI, 2024).

Test system: 699152-130-R-J1-PDC complex spheroid viability
Assay: Anticancer human tumor 699152-130-R-J1-PDC patient-derived pancreatic carcinoma cell line growth inhibition [POLQ]
Conditions: for IC50: curve of first compound; for viability, T/C: stronger effect = lower value
Method in brief: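 Complex spheroid viability model combining PDC tumour cells with endothelial (HUVEC) and MSC stromal cells. Novobiocin, ART-558 or RP6685 were tested singly and in combination with standard and investigational anticancer drugs. Each was titrated in half-log steps from near clinical Cmax, or from 10 microM where Cmax was unknown.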
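Also: spheroids exposed to agents for 7 days before viability reading.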
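For viability, T/C in this document: percent of DMSO vehicle control viability so 100% = vehicle and 0% = no viable signal.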

COc1cccc(OCCCN)c1-c1cc(Nc2cnc(C#N)cn2)n[nH]1 + Cc1cccc(N(C)C(=O)C2C(O)CCN2c2nc(C)cc(C(F)(F)F)c2C#N)c1
IC50 (second compound 0.0316 µM): > 1000 nM
IC50 (second compound 0.1 µM): > 1000 nM
IC50 (second compound 0.316 µM): > 1000 nM
IC50 (second compound 1 µM): > 1000 nM
IC50 (second compound 3.16 µM): > 1000 nM
IC50 (second compound 10 µM): > 1000 nM
viability, T/C (second compound 0.0316 µM, first compound 0.00316 µM): 93%
viability, T/C (second compound 0.0316 µM, first compound 0.01 µM): 75.7%
viability, T/C (second compound 0.0316 µM, first compound 0.0316 µM): 64.7%
viability, T/C (second compound 0.0316 µM, first compound 0.1 µM): 63.1%
viability, T/C (second compound 0.0316 µM, first compound 0.316 µM): 50.8%
viability, T/C (second compound 0.0316 µM, first compound 1 µM): 51.2%
viability, T/C (second compound 0.1 µM, first compound 0.00316 µM): 89.4%
viability, T/C (second compound 0.1 µM, first compound 0.01 µM): 85.7%
viability, T/C (second compound 0.1 µM, first compound 0.0316 µM): 67.4%
viability, T/C (second compound 0.1 µM, first compound 0.1 µM): 58.1%
viability, T/C (second compound 0.1 µM, first compound 0.316 µM): 55.5%
viability, T/C (second compound 0.1 µM, first compound 1 µM): 49.1%
viability, T/C (second compound 0.316 µM, first compound 0.00316 µM): 100%
viability, T/C (second compound 0.316 µM, first compound 0.01 µM): 91.3%
viability, T/C (second compound 0.316 µM, first compound 0.0316 µM): 61.5%
viability, T/C (second compound 0.316 µM, first compound 0.1 µM): 59.6%
viability, T/C (second compound 0.316 µM, first compound 0.316 µM): 54.5%
viability, T/C (second compound 0.316 µM, first compound 1 µM): 46.7%
viability, T/C (second compound 1 µM, first compound 0.00316 µM): 92.8%
viability, T/C (second compound 1 µM, first compound 0.01 µM): 90.7%
viability, T/C (second compound 1 µM, first compound 0.0316 µM): 61.2%
viability, T/C (second compound 1 µM, first compound 0.1 µM): 54.1%
viability, T/C (second compound 1 µM, first compound 0.316 µM): 52.8%
viability, T/C (second compound 1 µM, first compound 1 µM): 48.7%
viability, T/C (second compound 3.16 µM, first compound 0.00316 µM): 86.3%
viability, T/C (second compound 3.16 µM, first compound 0.01 µM): 86.4%
viability, T/C (second compound 3.16 µM, first compound 0.0316 µM): 67.2%
viability, T/C (second compound 3.16 µM, first compound 0.1 µM): 56.3%
viability, T/C (second compound 3.16 µM, first compound 0.316 µM): 51.2%
viability, T/C (second compound 3.16 µM, first compound 1 µM): 57.3%
viability, T/C (second compound 10 µM, first compound 0.00316 µM): 98.1%
viability, T/C (second compound 10 µM, first compound 0.01 µM): 88%
viability, T/C (second compound 10 µM, first compound 0.0316 µM): 61.6%
viability, T/C (second compound 10 µM, first compound 0.1 µM): 59%
viability, T/C (second compound 10 µM, first compound 0.316 µM): 58.4%
viability, T/C (second compound 10 µM, first compound 1 µM): 56.1%
